According to patent US10774064B2 (Cadent Therapeutics, Inc., priority 2016, dated 2020):

molecular target: T1, small-conductance Ca2+-activated K+ channels (SK channels, subtype 2) (Homo sapiens, UniProt Q9H2S1); test: whole-cell patch-clamp of ionic current through SK2 channels in HEK293 cells (SC100); assay type: cell-based; conditions: concentration that increases the basal current by 100%; HEK293 cells expressing SK2 channels
T1 construct: expressed in transfected cells; host or cells: HEK293
Procedure, shortened: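 Whole-cell patch-clamp recording of current in HEK293 cells expressing SK2 channels. SC100 is the compound concentration that increases basal current by 100%.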

`Cc1cc(C)n(-c2nc(NC3CCC(F)(F)CC3)cc(NC3CCCN(C)C3=O)n2)n1` (centres unmarked) [Compound 133, 3-((6-((4,4-difluorocyclohexyl)amino)-2-(3,5-dimethyl-1H-pyrazol-1-yl)pyrimidin-4-yl)amino)-1-methylpiperidin-2-one] was tested. Which SC100 did it give?
The SC100 was “+ (+ means >1 uM)”.

`Cc1cc(C)n(-c2cc(C(F)F)nc(NC3CCC(F)(F)CC3)n2)n1` [Compound 173] was tested. Which SC100 did it give?
Its SC100 is “++ (++ means 200 nM-1000 nM)”.

How did the SC100 turn out when `Cc1cc(NC2C[C@@H]3[C@H](C2)C3(F)F)nc(-n2ccc(C)n2)n1` (stereo partly drawn) [Compound 245, N-((1R,5S)-6,6-difluorobicyclo[3.1.0]hexan-3-yl)-6-methyl-2-(3-methyl-1H-pyrazol-1-yl)pyrimidin-4-amine] was run?
The SC100 was “+ (+ means >1 uM)”.

With `Cc1cc(NC2CCC(F)(F)CC2)nc(-n2ccc(C3CC3)n2)n1` [Compound 203, 2-(3-cyclopropyl-1H-pyrazol-1-yl)-N-(4,4-difluorocyclohexyl)-6-methylpyrimidin-4-amine] as the molecule, how does the SC100 read?
Its SC100 is “++ (++ means 200 nM-1000 nM)”.

How did the SC100 turn out when `Cc1cn(-c2cc(OC3COC3)cc(NC3CCC(F)(F)CC3)n2)nc1CF` [Compound 345, N-(4,4-difluorocyclohexyl)-6-(3-(fluoromethyl)-4-methyl-1H-pyrazol-1-yl)-4-(oxetan-3-yloxy)pyridin-2-amine] was run?
Its SC100 is “++ (++ means 200 nM-1000 nM)”.

With `Cc1cc(C)n(-c2cc(N3CC4(COC4)C3)nc(NC3CCC(F)(F)CC3)n2)n1` [Compound 108, N-(4,4-difluorocyclohexyl)-4-(3,5-dimethyl-1H-pyrazol-1-yl)-6-(2-oxa-6-azaspiro[3.3]heptan-6-yl)pyrimidin-2-amine] as the molecule, how does the SC100 read?
The SC100 was “+ (+ means >1 uM)”.

With `FCc1ccn(-c2nc(NC3CCC(F)(F)CC3)cc(N3CCSCC3)n2)n1` [Compound 284, N-(4,4-difluorocyclohexyl)-2-(3-(fluoromethyl)-1H-pyrazol-1-yl)-6-thiomorpholinopyrimidin-4-amine] as the molecule, how does the SC100 read?
Its SC100 is “++ (++ means 200 nM-1000 nM)”.

`CC(C)(C)C(=O)N1CC(Oc2cc(NC3CCC(F)(F)CC3)nc(-n3ccc(C(F)F)n3)n2)C1` [Compound 298, 1-(3-((6-((4,4-difluorocyclohexyl)amino)-2-(3-(difluoromethyl)-1H-pyrazol-1-yl)pyrimidin-4-yl)oxy)azetidin-1-yl)-2,2-dimethylpropan-1-one] was tested. Which SC100 did it give?
The SC100 was “++ (++ means 200 nM-1000 nM)”.

`CCc1ccn(-c2nc(C)cc(NC3CCC(F)(F)CC3)n2)n1` [Compound 197, N-(4,4-difluorocyclohexyl)-2-(3-ethyl-1H-pyrazol-1-yl)-6-methylpyrimidin-4-amine] was tested. Which SC100 did it give?
The SC100 was “++ (++ means 200 nM-1000 nM)”.

`Cc1cc(C)n(-c2nc(CO)cc(NC3CCCC(F)(F)C3)n2)n1` (centres unmarked) [Compound 357, (6-((3,3-difluorocyclohexyl)amino)-2-(3,5-dimethyl-1H-pyrazol-1-yl)pyrimidin-4-yl)methanol] was tested. Which SC100 did it give?
Its SC100 is “+ (+ means >1 uM)”.

`Cc1cc(C)n(-c2cc(C3CC3)nc(NC3CCC(F)(F)C3)n2)n1` (centres unmarked) [Compound 222, 4-cyclopropyl-N-(3,3-difluorocyclopentyl)-6-(3,5-dimethyl-1H-pyrazol-1-yl)pyrimidin-2-amine] was tested. Which SC100 did it give?
Its SC100 is “+ (+ means >1 uM)”.

How did the SC100 turn out when `COC(=O)N1CC(Oc2cc(NC3CCC(F)(F)CC3)nc(-n3ccc(C(F)F)n3)n2)C1` [Compound 295, methyl 3-((6-((4,4-difluorocyclohexyl)amino)-2-(3-(difluoromethyl)-1H-pyrazol-1-yl)pyrimidin-4-yl)oxy)azetidine-1-carboxylate] was run?
The SC100 was “++ (++ means 200 nM-1000 nM)”.

How did the SC100 turn out when `Cc1csc(-c2nc(NC3CCC(F)(F)CC3)cc(N3CCOCC3)n2)n1` [Compound 320, N-(4,4-difluorocyclohexyl)-2-(4-methylthiazol-2-yl)-6-morpholinopyrimidin-4-amine] was run?
The SC100 was “++ (++ means 200 nM-1000 nM)”.

`O=C(N1CC(Oc2cc(NC3CCC(F)(F)CC3)nc(-n3ccc(CO)n3)n2)C1)C(F)(F)F` [Compound 319, 1-(3-((6-((4,4-difluorocyclohexyl)amino)-2-(3-(hydroxymethyl)-1H-pyrazol-1-yl)pyrimidin-4-yl)oxy)azetidin-1-yl)-2,2,2-trifluoroethan-1-one] was tested. Which SC100 did it give?
Its SC100 is “+ (+ means >1 uM)”.

same assay, conditions: whole-cell patch-clamp, HEK293 cells expressing SK2 channels; concentration that increases the basal current by 100%

How did the “SC100 (μM)” value turn out when `COCC1CN(c2cc(NC3CCC(F)(F)CC3)nc(-c3nc(C)cs3)n2)CCO1` (centres unmarked) [NSSy5789] was run?
The value was “+++ (+++ means <200 nM)”.

With `Cc1cc(NC2CCC(F)(F)CC2)nc(-n2ccc(C3=CCCC3)n2)n1` [IN11250-007-P1, 2-(3-(cyclopent-1-en-1-yl)-1H-pyrazol-1-yl)-N-(4,4-difluorocyclohexyl)-6-methylpyrimidin-4-amine] as the molecule, how does the “SC100 (μM)” value read?
The value was “+ (+ means >1 uM)”.

How did the “SC100 (μM)” value turn out when `Cc1ccn(-c2nc(NC3CCC(F)(F)CC3)cc(N(C)C3CC3)n2)n1` [NSSy6272] was run?
The value was “++ (++ means 200 nM-1000 nM)”.

`COC(C)c1cc(-n2nc(C)cc2C)nc(NC2CCC(F)(F)CC2)n1` (centres unmarked) [NSSy6612] was tested. Which “SC100 (μM)” value did it give?
Its value is “+ (+ means >1 uM)”.

`Cc1csc(-c2nc(NC3CCC(F)(F)CC3)cc(N3CCCOCC3)n2)n1` [IN10864-034.P1] was tested. Which “SC100 (μM)” value did it give?
Its value is “+++ (+++ means <200 nM)”.

With `Cc1ccn(-c2cc(OCCN(C)C)nc(NC3CCC(F)(F)CC3)n2)n1` [NSSy6686] as the molecule, how does the “SC100 (μM)” value read?
Its value is “++ (++ means 200 nM-1000 nM)”.

`OC(c1cc(NC2CCC(F)(F)CC2)nc(-n2ccc(C3CC3)n2)n1)C(F)(F)F` (centres unmarked) [IN11217-068-P1, 1-(2-(3-cyclopropyl-1H-pyrazol-1-yl)-6-((4,4-difluorocyclohexyl)amino)pyrimidin-4-yl)-2,2,2-trifluoroethan-1-ol] was tested. Which “SC100 (μM)” value did it give?
Its value is “+ (+ means >1 uM)”.

Which “SC100 (μM)” value does the source give for `Cc1noc(-c2nc(NC3CCC(F)(F)CC3)cc(N3CCOCC3)n2)n1` [NSSy5835, N-(4,4-difluorocyclohexyl)-2-(3-methyl-1,2,4-oxadiazol-5-yl)-6-morpholinopyrimidin-4-amine] here?
The value was “+ (+ means >1 uM)”.

With `Cc1cc(NC2CCC(F)(F)CC2)nc(Cn2ccc(C)n2)n1` [IN11273-015-P1, N-(4,4-difluorocyclohexyl)-6-methyl-2-((3-methyl-1H-pyrazol-1-yl)methyl)pyrimidin-4-amine] as the molecule, how does the “SC100 (μM)” value read?
The value was “+ (+ means >1 uM)”.

`Cc1ccn(-c2cc(NC3CCC(F)(F)CC3)cc(N3CCOCC3)n2)n1` [IN10973-098-P1, N-(4,4-difluorocyclohexyl)-2-(3-methyl-1H-pyrazol-1-yl)-6-morpholinopyridin-4-amine] was tested. Which “SC100 (μM)” value did it give?
Its value is “+ (+ means >1 uM)”.

For `Cc1cc(C)n(-c2cc(N3CCOCC3)nc(NC3CCC(F)(F)CC3)n2)n1` [NSSy6389], which “SC100 (μM)” value is on record?
Its value is “+ (+ means >1 uM)”.

How did the “SC100 (μM)” value turn out when `Cc1cc(C)n(-c2cc(N3C[C@H]4C[C@@H]3CO4)nc(NC3CCC(F)(F)CC3)n2)n1` [NSSy6638] was run?
Its value is “++ (++ means 200 nM-1000 nM)”.

Which “SC100 (μM)” value does the source give for `CC(O)c1cc(-n2ccc(C(F)(F)F)n2)nc(NC2CCC(F)(F)CC2)n1` (centres unmarked) [NSSy6614] here?
The value was “+ (+ means >1 uM)”.

How did the “SC100 (μM)” value turn out when `CNc1cc(-n2ccc(C)n2)nc(NC2CCC(F)(F)CC2)n1` [NSSy6688] was run?
Its value is “++ (++ means 200 nM-1000 nM)”.

`Cc1nsc(-c2nc(NC3CCC(F)(F)CC3)cc(N3CCN(C4COC4)CC3)n2)n1` [NSSy6201] was tested. Which “SC100 (μM)” value did it give?
The value was “+ (+ means >1 uM)”.

`COC(C)c1cc(-c2nc(C)cs2)nc(NC2CCC(F)(F)CC2)n1` (centres unmarked) [NSSy6697, N-(4,4-difluorocyclohexyl)-4-(1-methoxyethyl)-6-(4-methylthiazol-2-yl)pyrimidin-2-amine] was tested. Which “SC100 (μM)” value did it give?
Its value is “+ (+ means >1 uM)”.

Which “SC100 (μM)” value does the source give for `Cc1csc(-c2nc(NC3CCC(F)(F)CC3)cc(C(C)(F)F)n2)n1` [IN10876-082-P1, N-(4,4-difluorocyclohexyl)-6-(1,1-difluoroethyl)-2-(4-methylthiazol-2-yl)pyrimidin-4-amine] here?
The value was “+ (+ means >1 uM)”.

`Cc1ccn(-c2cc(N3CCC4(CCOCC4)C3)nc(NC3CCC(F)(F)CC3)n2)n1` [NSSy6581] was tested. Which “SC100 (μM)” value did it give?
The value was “+ (+ means >1 uM)”.

With `Cc1csc(-c2nc(NC3CCC(F)(F)CC3)cc(N3CCC(N(C)C)CC3)n2)n1` [IN10881-020.P1] as the molecule, how does the “SC100 (μM)” value read?
The value was “+++ (+++ means <200 nM)”.

With `CC(F)c1ccn(-c2nc(NC3CCC(F)(F)CC3)cc(N3CCOCC3)n2)n1` (centres unmarked) [IN11243-041-P1] as the molecule, how does the “SC100 (μM)” value read?
The value was “+++ (+++ means <200 nM)”.

`COc1c(NC2CCC(F)(F)CC2)nc(-c2nc(C)cs2)nc1OCCO` [IN11111-023-P1] was tested. Which “SC100 (μM)” value did it give?
Its value is “+ (+ means >1 uM)”.

How did the “SC100 (μM)” value turn out when `Cc1csc(-c2nc(NC3CCC(F)(F)CC3)cc(OCc3ncn(C)n3)n2)n1` [NSSy5690] was run?
Its value is “++ (++ means 200 nM-1000 nM)”.

With `Cc1cc(C)n(-c2nc(NC3CCC(F)(F)CC3)cc(C(C)N(C)C)n2)n1` (centres unmarked) [IN10964-046-P1, N-(4,4-difluorocyclohexyl)-2-(3,5-dimethyl-1H-pyrazol-1-yl)-6-(1-(dimethylamino)ethyl)pyrimidin-4-amine] as the molecule, how does the “SC100 (μM)” value read?
The value was “+ (+ means >1 uM)”.

`Cc1csc(-c2cc([S+](C)[O-])cc(NC3CCC(F)(F)CC3)n2)n1` (centres unmarked) [IN11147-031-P1, N-(4,4-difluorocyclohexyl)-4-(methylsulfinyl)-6-(4-methylthiazol-2-yl)pyridin-2-amine] was tested. Which “SC100 (μM)” value did it give?
Its value is “++ (++ means 200 nM-1000 nM)”.

With `COC(=O)N1CC(Oc2cc(NC3CCC(F)(F)CC3)cc(-c3nc(C)cs3)c2)C1` [NSSy5972, methyl 3-(3-((4,4-difluorocyclohexyl)amino)-5-(4-methylthiazol-2-yl)phenoxy) azetidine-1-carboxylate] as the molecule, how does the “SC100 (μM)” value read?
Its value is “+ (+ means >1 uM)”.

`Oc1ccn(-c2nc(NC3CCC(F)(F)CC3)cc(N3CCOCC3)n2)n1` [NSSy7087, 1-(4-((4,4-difluorocyclohexyl)amino)-6-morpholinopyrimidin-2-yl)-1H-pyrazol-3-ol] was tested. Which “SC100 (μM)” value did it give?
The value was “+ (+ means >1 uM)”.

`Cc1cc(NC2CCC(F)(F)CC2)nc(-n2ccc(C(C)(C)C)n2)n1` [IN11177-029-P1] was tested. Which “SC100 (μM)” value did it give?
The value was “++ (++ means 200 nM-1000 nM)”.

How did the “SC100 (μM)” value turn out when `CC(=O)N1CCC(Oc2cc(-n3ccc(C)n3)nc(NC3CCC(F)(F)CC3)n2)CC1` [NSSy6914] was run?
The value was “+++ (+++ means <200 nM)”.

`CCOc1cc(NC2CCC(F)(F)CC2)nc(-n2ccc(C)n2)n1` [IN11063-005-P1] was tested. Which “SC100 (μM)” value did it give?
The value was “+ (+ means >1 uM)”.

`Cc1csc(-c2nc(NC3CCC(F)(F)CC3)cc(N3CCN(C4COC4)CC3)n2)n1` [NSSy5792] was tested. Which “SC100 (μM)” value did it give?
The value was “++ (++ means 200 nM-1000 nM)”.
